# What was measured:
# [1] = system: Pseudomonas aeruginosa (ATCC 15442); assay: Real-time microcalorimetric measurement of bacterial metabolic activity (heat flow, Calscreener); type: cell-based
# Description: Pseudomonas aeruginosa (ATCC 15442) was grown overnight in TSB (tryptic soy broth) medium, before being diluted 1×10^7 fold in fresh TSB. Subsequently […] aliquots of diluted bacteria suspensions were respectively supplemented with 1, 2, 4, 6, 12 and 24 mg/L of chlorhexidine (digluconate solution, 20% in H2O, Merck). The aqueous solution of chlorhexidine was kept refrigerated according to the manufacturer's technical sheet. Chlorhexidine or mQH2O as a vehicle were added to the bacterial suspensions to obtain the given concentrations followed by a brief vortexing. Bacterial aliquots were then distributed in the dedicated non-activated inserts of a 48-well plate and grown for 24h or more under static conditions at 37 C using Calscreener technology to measure bacterial growth and metabolic activity in Real-Time as described in https://cordis.europa.eu/project/id/784514.
# For the study of the combination of chlorhexidine and triafluocyl aforementioned diluted bacterial suspensions were supplemented with either chlorhexidine alone (1, 2, 4, 6, 12 mg/L) or mixed with triafluocyl (20 mg/L, Polpharma). Triafluocyl was stored in absolute ethanol in the refrigerator at a concentration of 3 mg/mL. Triafluocyl, chlorhexidine or both, and ethanol as a vehicle were added to the bacterial suspensions to obtain the given concentrations.
# Pseudomonas aeruginosa (ATCC 15442) was grown overnight in TSB (tryptic soy broth) medium, before being diluted 1×10^7 fold in fresh TSB. Subsequently […] aliquots of diluted bacteria suspensions were respectively supplemented with […] of alexidine dihydrochloride (stock solution of 3 mg/mL in ethanol, Merck). […] The stock solutions of alexidine and fluometacyl were kept frozen according to the manufacturer's technical sheet. Alexidine alone or with fluometacyl, and ethanol as a vehicle were added to the bacterial suspensions to obtain the given concentrations followed by a brief vortexing. […]
# [2] = system: Staphylococcus aureus (MRSA, ATCC 6538); assay: as above; type: cell-based
# Description: Staphylococcus aureus (MRSA, ATCC 6538) was grown overnight in TSB (tryptic soy broth) medium, before being diluted 1×10^6 fold in fresh TSB. Subsequently […] aliquots of diluted bacteria suspensions were respectively supplemented with 1 and 2 mg/L of chlorhexidine (digluconate solution, 20% in H2O, Merck). […] The aqueous solution of chlorhexidine and the ethanol-based solution of triafluocyl were kept refrigerated. Chlorhexidine, triafluocyl or both, and ethanol as a vehicle were added to the bacterial suspensions to obtain the given concentrations followed by a brief vortexing. Bacterial aliquots were then distributed in the dedicated non-activated inserts of a 48-well plate and grown for 24 h or more under static conditions at 37 C using Calscreener technology to measure bacterial growth and metabolic activity in Real-Time as described in https://cordis.europa.eu/project/id/784514.
# Staphylococcus aureus (MRSA, ATCC 6538) was grown overnight in TSB (tryptic soy broth) medium, before being diluted 1×10^6 fold in fresh TSB. Subsequently […] aliquots of diluted bacteria suspensions were respectively supplemented with 0.25, 0.5 and 1 μg/mL of chlorhexidine (digluconate solution, 20% in H2O, Merck) or alexidine dihydrochloride (stock solution of 3 mg/mL in ethanol, Merck).
# The aqueous solution of chlorhexidine and the ethanol-based solution of alexidine were kept refrigerated. Chlorhexidine, alexidine, and ethanol as a vehicle were added to the bacterial suspensions to obtain the given concentrations followed by a brief vortexing. Bacterial aliquots were then distributed in the dedicated non-activated inserts of a 48-well plate and grown for 24 h or more under static conditions at 37 C using Calscreener technology to measure bacterial growth and metabolic activity in Real-Time as described in https://cordis.europa.eu/project/id/784514.
# Staphylococcus aureus (MRSA, ATCC 6538) was grown overnight in TSB (tryptic soy broth) medium, before being diluted 1×10^6 fold in fresh TSB. Subsequently […] aliquots of diluted bacteria suspensions were respectively supplemented with […] of alexidine dihydrochloride (stock solution of 3 mg/mL in ethanol, Merck). […] The ethanol-based solutions of alexidine and fluometacyl were stored at −20° C.
# Alexidine alone or with fluometacyl, and ethanol as a vehicle were added to the bacterial suspensions to obtain the given concentrations followed by a brief vortexing. Bacterial aliquots were then distributed in the dedicated non-activated inserts of a 48-well plate and grown for 24 h or more under static conditions at 37 C using Calscreener technology to measure bacterial growth and metabolic activity in Real-Time.
# [3] = system: Pseudomonas aeruginosa (PA); assay: MIC in monotherapy and in combination therapy (ISO standard 20776-1); type: cell-based
# Source text: (§1) Summary of MIC Values for Fluometacyl (FLC)+Chlorhexidine (CHX) Tested Against MRSA, Enterococcus faecalis (VRE), Pseudomonas aeruginosa (PA) and Candida albicans (CA).
# (§2) By Minimum Inhibitory Concentration (MIC) one means the lowest concentration of antimicrobial that prevents visible growth of a microorganism (determined according to ISO standard 20776-1).
# (§3) This finds an implication in combining many known antimicrobials together rather than discovering new chemical entities.
# [4] = system: Candida albicans (CA); assay: as above; type: cell-based
# Source text: as §1, §2, §3
# [5] = system: Staphylococcus aureus (MRSA); assay: as above; type: cell-based
# Source text: as §1, §2, §3
# [6] = cited from earlier work
# [7] = system: Vancomycin-resistant Enterococcus faecalis (VRE, ATCC BAA-2573); assay: Synergy checkerboard assay / broth micro-dilution MIC (ISO 20776-1 with modifications); type: cell-based
# Description: • 1. Preparation of the inoculum of Vancomycin-resistant Enterococcus faecalis (VRE, ATCC BAA-2573). Inoculum is prepared by suspension of 1 colony of bacteria (medium size colony from Tryptic Soy agar plate) in 3 ml of Tryptic Soy broth (TSB) using a 200 μL tip. The solution is mixed by vortexing and incubated at 37° C. overnight (19-24 hours) under shaking at 200 rpm. • 2. Preparation of the Antimicrobial dilution on the day of the experiment. Stock solutions are performed with distilled water for all antimicrobial compound except for Fluometacyl (ethanol). Dilution for each condition is made in Mueller-Hinton broth (NMB). 50p of APIs dilution is added to wells of a 96 wells microplate (each condition in duplicate-triplicate). • Antimicrobial compounds were prepared as follows: • Fluometacyl (F) (4 mg/mL in 100% EtOH) served as a master stock. To obtain the final concentration of 40 μg/ml in the bacterial suspension, initial stock of 160 μg/ml in Mueller-Hinton broth (MHB) was prepared and further 2-fold diluted using the following serial dilution scheme: • (1): 40 μg/ml (160 μg/ml, prepared in MHB) • (2): 20 μg/ml (80 μg/ml, dilution in MHB) • (3): 10 μg/ml (40 μg/ml, dilution in MHB) • (4): 5 μg/ml (20 μg/ml, dilution in MHB) • (5): 2.5 μg/ml (10 μg/ml, dilution in MHB) • (6): 1.25 μg/ml (5 μg/ml, dilution in MHB) • Chlorhexidine acetate (CHLX) (2 mg/mL in H2O) served as a master stock. To obtain the final concentration of 4 μg/ml in the bacterial suspension, initial stock of 16 μg/ml in MHB was prepared and further 2-fold diluted using the following serial dilution scheme: • (1): 8 μg/ml (32 μg/ml, prepared in MHB) • (2): 4 μg/ml (16 μg/ml, prepared in MHB) • (3): 2 μg/ml (8 μg/ml, dilution in MHB) • (4): 1 μg/ml (4 μg/ml, dilution in MHB) • (5): 0.5 μg/ml (2 μg/ml, dilution in MHB) • (6): 0.25 μg/ml (1 μg/ml, dilution in MHB) • 3. Preparation of VRE. Before the experiment, the VRE bacterial suspension (incubated overnight) is diluted 100× in TSB in 4 mL of TSB and grown at 37 C under agitation 200 rpm until OD600 reaches 0.08 to 0.16. This corresponds to the cell density […]. 100 μl of the bacterial solution (OD600 ranging from 0.08 to 0.16) is added to 9 900 μL of Mueller-Hinton Broth (MHB) (dilution 1:100). • 4. Preparation of a 96-well plate. 100 μL of bacteria (diluted 1:100 in MHB from the point 3) is added in each well of the plate containing 100 μL of the serially diluted APIs alone or in combinations as shown in the p. 2. Bacteria should be added into the 96-well plate within the 30 minutes following the preparation of the bacteria in order to maintain the same number of CFU/mL. Plates are incubated at 37° C. overnight. A condition with MHB medium alone or bacteria without APIs will also be added as the control conditions. Since fluometacyl is dissolved in ethanol, extra conditions are added: MHB with ethanol in order to assess the effect of ethanol on bacterial growth. • Following scheme is applied: • 2 antibacterial compounds: 50 μL of a antimicrobial 1+50 μL of a antimicrobial 2+100 μL of bacterial suspension in MHB • 1 antibacterial compound: 50 μL of a drug 1/2+50 μL of MHB+100 μL of bacterial suspension in MHB • Growth control: 100 μL MHB (+/−Ethanol)+100 μL of bacterial suspension • BLANK: MHB only • 5. CFU counting of the initial challenge inoculum. 10 μL of the solution of the bacteria used as the positive control is diluted in 10 mL of TSB. 100 μL is spread on Tryptic Soy agar (done in triplicate) and incubated at 37° C. overnight • 6. Results. The MIC is the lowest concentration that inhibits completely the visible growth of the bacteria (no turbidity in a well). The OD at 600 nm is also recorded for each well as back-up data.
# Synergy evaluation resulting from the comparison between activity of the combination of the antimicrobial compounds and their individual activities was represented as the Fractional Inhibitory Concentration (FIC) index value. […]
# [8] = MIC combination / MIC monotherapy
Molecule,effect on growth (heat flow) ([1]; alexidine 4 mg/mL alone),effect on growth (heat flow) ([2]; alexidine 1 mg/mL alone),"effect on metabolic activity (heat flow), compared with chlorhexidine ([2]; alexidine 0.25 and 0.5 mg/mL alone)",MIC Monotherapy (X) ([3]; antimicrobial alone),MIC combination dual therapy (Y) ([3]; in FLC + CHX combination),MIC Monotherapy (X) ([4]; antimicrobial alone),MIC combination dual therapy (Y) ([4]; in FLC + CHX combination),"Ratio Y/X [5, 8]","MIC ([5]; Staphylococcus aureus, MRSA, antimicrobial alone, read-out: MIC Monotherapy (X))",MIC combination dual therapy (Y) ([5]; in FLC + CHX combination),solubility in an aqueous environment or aqueous medium [6],"MIC ([7]; Enterococcus faecalis, antimicrobial alone, read-out: MIC Monotherapy (X))","Ratio Y/X [7, 8]",MIC combination dual therapy (Y) ([7]; in FLC + CHX combination),effect on growth (heat flow) ([1]; triafluocyl 20 mg/L alone),effect on growth (heat flow) ([2]; triafluocyl 1 mg/L alone)
alexidine,strong growth inhibition,full growth inhibition,noticeably stronger effect,,,,,,,,,,,,,
"CCCSc1nc(N[C@@H]2C[C@H]2c2ccc(F)c(F)c2)c2nnn([C@@H]3C[C@H](O)[C@@H](O)[C@H]3O)c2n1 [Fluometacyl, (1S,2R,3S,4R)-4-[7-[[(1R,2S)-2-(3,4-Difluorophenyl)cyclopropyl]amino]-5-(propylthio)-3H-1,2,3-triazolo[4,5-d]pyrimidin-3-yl]-1,2,3-cyclopentanetriol]",,,,Not detected,20 mg/mL,Not detected,20 mg/mL,0.25-0.5,20 mg/mL,5 to 10 mg/mL,generally not soluble,20 mg/mL,0.125-0.5,2.5 to 10 mg/mL,,
"CCCSc1nc(N[C@@H]2C[C@H]2c2ccc(F)c(F)c2)c2nnn([C@@H]3C[C@H](OCCO)[C@@H](O)[C@H]3O)c2n1 [Triafluocyl, (1S,2S,3R,5S)-3-[7-[(1R,2S)-2-(3,4-difluorophenyl)cyclopropylamino]-5-(propylthio)-3H-[1,2,3]-triazolo[4,5-d]pyrimidin-3-yl]-5-(2-hydroxyethoxy)-1,2-cyclopentanediol]",,,,,,,,,,,generally not soluble,,,,does not inhibit the growth,doesn't affect the growth

# — patent US20250375453A1, “HIGH-EFFICIENCY ANTIMICROBIAL COMPOSITION” (CM4CURE S.A., priority 2023, published 2025)
